Patent publication US20220213060A1, “Crystal Form of Quinazolinone Compound and Preparation Method Therefor” (Luoxin Healthcare Science and Technology Development …, priority 2019, published 2022)
Read-outs that look alike come from different tables or passages of the source.

Columns and labels:
[1] = test system: RAW264.7; assay: Akt phosphorylation inhibition in RAW264.7 cells (high expression of PI3Kγ); type: cell-based; settings: RAW264.7 cell line with high expression of PI3Kγ
[2] = Beagle dog absorption test (pharmacokinetics); type: in vivo, Beagle dogs
Procedure: Beagle dogs were given the crystal form A of the compound represented by formula (I) by single or multiple oral administration and single intravenous injection respectively, with 6 dogs in each group, half male and half female. The single oral doses were 0.3, land 3 mg/kg respectively; the multiple doses were 1 mg/kg, once a day for 7 consecutive days; the single intravenous dose was 0.3 mg/kg. According to the drug plasma concentration-time curve, the pharmacokinetic parameters were calculated, the results are shown in Table 15. The vehicle for drug preparation in group 1 was 5% HP-beta-CD, 5% solutol, pH=8 aqueous solution, the vehicles for groups 2, 3, 4 were 0.5% MC, 0.2% Tween80 aqueous solution.

[3] = PK test of plasma on the last day of administration in the BT-474 xenograft study; type: in vivo, BALB/c nude mice; settings: BT-474 tumor-bearing nude mice
Procedure: 0.5-1 hours after administration, the blood concentration reached the peak. The plasma exposure at the dose to play the effect was 69 300 nM*h.

[4] = test system: human breast cancer T47D (PIK3CA H1047R mutation); assay: In vivo pharmacodynamic study, T47D nude mouse subcutaneous xenograft tumor model; design: species or system BALB/c nude mice
Procedure: The phenotype of human T47D breast cancer cells is HR+/HER2−, and it carries PIK3CA H1047R mutation. This experiment evaluated the efficacy of the crystal form A of the compound represented by formula (I) in a human breast cancer xenograft tumor model.
Cell culture: Human breast cancer T47D cells were cultured in vitro in a single layer, the culture condition was RPMI-1640 medium with 0.2 U/mL bovine insulin and 10% fetal bovine serum, and the cells were incubated in 5% CO2 at 37° C. Digestion and passage treatment with trypsin-EDTA was carried out twice a week. When the cell saturation was 80%-90% and the number reached the requirement, the cells were collected, counted and inoculated.
Animals: BALB/c nude mice, female, 6-8 weeks old, weighing 18-20 g. A total of 75 animals were required, and provided by Shanghai Bikai experimental animal Co., Ltd or other qualified suppliers.
Tumor inoculation: Estrogen tablets (0.18 mg/tablet) were subcutaneously inoculated on the left back of each mouse. Three days later, 0.2 mL (10×10^6 cells) of T47D cells (with matrigel in a volume ratio of 1:1) were subcutaneously inoculated on the right back of each mouse, group administration was started when the average tumor volume reached 150 mm^3-200 mm^3.
Tumor-bearing mice in each administration group had good tolerance to the tested compounds.

[5] = both sexes, beagle, dog, plasma, po, 0.3 mg/kg, male and female Beagle dogs, single
[6] = both sexes, dog, plasma, iv, male and female Beagle dogs, vein, 0.3 mg/kg, single
[7] = both sexes, dog, plasma, male and female Beagle dogs, oral, 0.3 mg/kg, single
[8] = both sexes, dog, plasma, male and female Beagle dogs, oral, 1 mg/kg once a day, day 7
[9] = both sexes, dog, plasma, male and female Beagle dogs, oral, 1 mg/kg, day 1
[10] = both sexes, dog, plasma, male and female Beagle dogs, oral, 3 mg/kg, single
[11] = male and female beagle dogs, oral, 1 mg/kg for 7 consecutive days, 7 days after the administration
[12] = male and female beagle dogs, oral, 1 mg/kg, 1 day after the administration
[13] = 10 mg/kg, oral once a day for 42 days
[14] = 10 mg/kg, oral once a day for 42 days, listed as crystal form A of the compound represented by formula (I)
[15] = 20 mg/kg, oral once a day for 42 days
[16] = 20 mg/kg, oral once a day for 42 days, listed as crystal form A of the compound represented by formula (I)
[17] = 40 mg/kg, oral once a day for 42 days
[18] = 40 mg/kg, oral once a day for 42 days, listed as crystal form A of the compound represented by formula (I)

## CNC(=O)[C@H](C)Cn1cnc2ccc(-c3cnc(OC)c(NS(=O)(=O)c4ccc(F)cc4F)c3)cc2c1=O
[1]
  Selectivity PI3Kα over PI3Kγ, Akt phosphorylation inhibitory activity in cells: > 694 times
[2]; both sexes, beagle, dog, plasma, iv, 0.3 mg/kg, male and female Beagle dogs, vein, single
  AUC(0-t): 1.47 ± 0.353 µM·h
[2]; [5]
  AUC(0-t): 1.29 ± 0.715 µM·h
  bioavailability: 87.8%
[2]; both sexes, beagle, dog, plasma, po, 1 mg/kg, male and female Beagle dogs, oral, 1 mg/kg once a day, day 7
  AUC(0-t): 5.88 µM·h
[2]; both sexes, beagle, dog, plasma, po, 1 mg/kg, male and female Beagle dogs, oral, 1 mg/kg, day 1
  AUC(0-t): 4.98 ± 0.946 µM·h
[2]; both sexes, beagle, dog, plasma, po, 3 mg/kg, male and female Beagle dogs, single
  AUC(0-t): 14.8 ± 2.51 µM·h
[2]; [6]
  C0: 512 nM
  clearance: 6.18 ± 1.49 mL/min/kg
  half-life: 6.32 ± 1.62 h
[2]; both sexes, dog, plasma, iv, male and female Beagle dogs, vein, 0.3 mg/kg, single, read-out: Vdss
  Vd: 2.47 ± 0.391 L/kg
[2]; [7]
  Tmax: 2 ± 1.1 h
  half-life: 6.92 ± 3.16 h
[2]; both sexes, dog, plasma, male and female Beagle dogs, oral, 0.3 mg/kg, single, read-out: Cmax
  Cmax: 158 ± 68.4 nM
[2]; [8]
  Cmax at 7 days: 850 nM
  Tmax at 7 days: 1.33 h
  half-life at 7 days: 5.18 ± 0.487 h
[2]; [9]
  Tmax: 1.67 ± 0.516 h
  half-life: 5 ± 1.44 h
[2]; both sexes, dog, plasma, male and female Beagle dogs, oral, 1 mg/kg, day 1, read-out: Cmax
  Cmax: 656 ± 30.7 nM
[2]; [10]
  Tmax: 3.08 ± 1.5 h
  half-life: 6.55 ± 1.76 h
[2]; both sexes, dog, plasma, male and female Beagle dogs, oral, 3 mg/kg, single, read-out: Cmax
  Cmax: 1880 ± 274 nM
[2]; [11]
  AUC0-last: 5.88 ± 0.697 µM·h
  Cmax: 850±106 nm
[2]; [12]
  AUC0-last: 4.98 ± 0.946 µM·h
  Cmax: 656±30.7 nm
[3]; oral 10 mg/kg, last day of administration
  Plasma exposure at the dose to play the effect: 69 300 nM*h
[3]; oral 10, 20, 40 mg/kg
  Plasma exposure with the increase of administration dose: increased linearly
[3]; oral, last day of administration
  Time after administration at which the blood concentration reached the peak: 0.5 to 1 h
[4]; 10 mg/kg group
  Anti-tumor effect (in words): strong anti-tumor effect
[4]; [13]
  T/C %: 50.40%
  TGI %: 67.58%
[4]; [14]
  T/C %: 50.40%
  TGI %: 67.58%
[4]; 20 mg/kg group
  Anti-tumor effect (in words): strong anti-tumor effect
[4]; [15]
  T/C %: 44.70%
  TGI %: 72.56%
[4]; [16]
  T/C %: 44.70%
  TGI %: 72.56%
[4]; 40 mg/kg group
  Anti-tumor effect (in words): significant anti-tumor effects
[4]; [17]
  T/C %: 37.91%
  TGI %: 84.71%
[4]; [18]
  T/C %: 37.91%
  TGI %: 84.71%
[4]; oral once a day for 42 days
  Dose to play the effect: 10 mg/kg
